Experiments:
[1] = tested on: glucoamylase/maltase (GM) enzyme complex; assay: Cleavability by small-intestine α-glucosidases, GM complex; assay type: in vitro ADME, porcine; details: 2 hours, 37° C.
Procedure: Mixing was followed by incubation at 37° C.

[2] = tested on: saccharase/isomaltase (SI) enzyme complex; assay: Cleavability by small-intestine α-glucosidases, SI complex; details: 2 hours, 37° C.
Procedure: The saccharase/isomaltase (SI) and glucoamylase/-maltase (GM) enzyme complexes were isolated from porcine small intestine by the method of H. Heymann (Dissertation, Hannover, 1991).
• triethanolamine (TRA) buffer, 0.1 M, pH 7.0 • saccharide, 1% strength solution in TRA buffer • maltose or sucrose, as control substances, 1% strength in TRA buffer • mucosa enzyme, dissolved in TRA buffer Reaction Mixture:
1.2 ml of the carbohydrate solution, at a controlled temperature of 37° C., were admixed with 0.7 U of the saccharase/isomaltose or glucoamylase/maltase enzyme complex, respectively, at t=0. Mixing was followed by incubation at 37° C. The reaction was stopped after 2 hours by heating at 95° C. for 15 minutes. The monosaccharides formed and also the test substances used were assayed by HPAEC.

[3] = Stability in the stomach: rate of hydrolysis at pH 2.0; assay type: physicochemical; details: pH 2.0 (0.01 M HCl), 37° C., 1% solution
Procedure: The stability of a substance on passage through the stomach can be ascertained by determining the rate of hydrolysis at a pH of 2.0, using sucrose and 1-kestose as controls.
Samples were taken from the reaction mixture after 60, 120 and 180 minutes. They were analyzed by means of HPAEC techniques.
Report as hydrolysis rates in %

hydrolysis by the GM enzyme complex [1]	hydrolysis by the SI enzyme complex [2]	hydrolysis rate ([3]; incubation time 0 min.) [%]	hydrolysis rate ([3]; incubation time 60 min.) [%]	hydrolysis rate ([3]; incubation time 120 min.) [%]	hydrolysis rate ([3]; incubation time 180 min.) [%]	Compound
virtually complete hydrolysis	virtually complete hydrolysis	–	–	–	–	OC[C@H]1O[C@H](O[C@H]2[C@H](O)[C@@H](O)C(O)O[C@@H]2CO)[C@H](O)[C@@H](O)[C@@H]1O (mixture of isomers) [Maltose, maltose]
–	–	0	11	25	36	OC[C@H]1O[C@@](CO)(OC[C@@]2(O[C@H]3O[C@H](CO)[C@@H](O)[C@H](O)[C@H]3O)O[C@H](CO)[C@@H](O)[C@@H]2O)[C@@H](O)[C@@H]1O [1-Kestose, 1-kestose]
–	virtually complete hydrolysis	0	2	5	8	OC[C@H]1O[C@@](CO)(O[C@H]2O[C@H](CO)[C@@H](O)[C@H](O)[C@H]2O)[C@@H](O)[C@@H]1O [Sucrose, sucrose]

Reference: patent US20050222406A1, “Condensed palatinose in hydrogenated form” (priority 2002, published 2005)
